From patent US20220356163A1, “SMALL MOLECULE INHIBITORS OF Id PROTEINS” (MEMORIAL SLOAN KETTERING CANCER CENTER, priority 2019, published 2022)
pIC50: −log10 of the molar value.

How the values were obtained:
[1] = system: ID1 mRNA; assay: qRT-PCR for ID1 in HCT116 cells; type: cell-based; conditions: 40 μM, 24 hours
Experimental: qRT-PCR. RNA was extracted using the RNeasy kit (Qiagen, Valencia, Calif., USA) and cDNA was generated from 1 μg of RNA using SuperScript IV First-Strand Synthesis System (Invitrogen, Grand Island, N.Y., USA). Quantitative PCR was performed using SYBR Green QuantiTect Primer Assay (Qiagen) according to manufacturer's instructions in a 7900HT Fast-Real Time PCR System Instrument (Applied Biosystems, Grand Island, N.Y., USA). Primer pairs for the individual genes were obtained from the bioinformatically validated QuantiTect Library and are as follows: ID1 (QT00230650), ID3 (QT01673336), and GAPDH (QT01192646). The fold changes in gene expression were calculated using the delta-delta CT method.

[2] = system: E protein binding; assay: EMSA on whole cell lysates from HCT116 cells; type: cell-based; conditions: 24 hours treatment
Experimental: Electrophoretic mobility shift assays. To test the activity of compounds identified in the in silico screen, full-length E47 was purified from bacteria and mixed with a P^32 labeled E-box sequence derived from the muscle creatine kinase (MCK) enhancer, BSA, DTT, poly dI-dC, salmon sperm, and HeLa nuclear extract, in the presence or absence of purified full-length Id1. Increasing concentrations of the various test compounds dissolved in DMSO or DMSO alone were added to the reaction mixes for 30 minutes, resolved on a 5% non-denaturing polyacrylamide gel, and autoradiographed. Electrophoretic mobility shift assays (EMSAs) were carried out on whole cell lysates from AGX51-treated cells and the EMSA was performed as described previously (Tournay and Benezra, Mol Cell Biol, 16: 2418-30 (1996)).
Without being bound by theory, it was hypothesized that loss of Id proteins in response to AGX51 should result in an increase in E protein binding activity assuming little interference of the compound with the E proteins themselves. […] To determine if loss of Id activity precedes Id protein loss, EMSAs were carried out using cell lysates from HCT116 cells treated with AGX51 for one hour.

[3] = system: SK-BR-3; assay: MTT assay, SK-BR-3; type: cell-based; conditions: Homo sapiens, 24 h, SK-BR-3, HER-2 +ve cell line, read-out: IC50 value after 24 hours of treatment
Description: (§1) The 4T1 murine mammary tumor cell line and nine breast cancer cell lines representing the major breast cancer subtypes (ER+, HER2+, and TNBC) including MDA-MB-157, MDA-MB-436, MDA-MB-231, MDA-MB-453, MDA-MB-361, BT-474, SK-BR-3, MCF-7 and T47-D will be grown in RPMI or DMEM (Dulbecco's Modified Eagle Medium) media supplemented with 10% FBS (fetal bovine serum), 1% penicillin-streptomycin and 1% L-Glutamine. Patient derived xenograft cell lines BR7, BR11, and IBT will be established directly from breast cancer bone metastases specimens surgically resected from patients with informed consent. BR7 and BR11 specimens will be obtained from ER positive (HER2 negative and PR negative) metastatic breast cancer patients, while the IBT specimen will be obtained from a metastatic, triple negative breast cancer patient. Fresh tumor tissues will be quickly washed with ice cold PBS and minced into about 1-3 mm pieces in MEM medium (without FBS) using sterile razor blades. […] The cells will be treated with either 100 μM DMSO, AGX51, or a compound of the present technology such as AGX-A. The cell morphology and growth will be monitored daily for 1 week by microscopy for changes in morphology or cell death. […] Absorbance will then measured at 570 nm using a plate reader (Synergy 2, BioTek). […]

[4] = system: PDX-BR7; assay: MTT assay, PDX-BR7; type: cell-based; conditions: 24 h, PDX-BR7, PDX cell line, read-out: IC50 value after 24 hours of treatment
Description: as §1

[5] = Aqueous solubility; type: physicochemical
[6] = system: PDX RomeP_PHCH_X_0008a; assay: Murine PDX model of cholangiocarcinoma, Round 1 (AGX-A in DMSO); type: in vivo, mouse
Experimental: A first round of the study (“Round 1”) was planned as indicated in the Round 1 Study Protocol blow, utilizing gemcitabine in saline and AGX-A in DMSO for administration. • Mice: NSG females, 6-8 weeks old • […], serially transplanted sc with matrigel • Treatment Groups (at least 6 animals/group): treatments started when tumors reached 100 mm^3 (“Day 0” for each animal) • Group 1. Saline, i.p. once a week (“QW”) for 3-4 weeks (“×3-4 weeks”) • Group 2. Gemcitabine 25 mg/kg i.p. QW×3-4 weeks • Group 3. AGX-A 10 mg/kg i.p. once a day for 5 consecutive days (“QD×5”)×3-4 weeks • Group 4. Gemcitabine 25 mg/kg […] 10 mg/kg i.p. QD×5×3-4 weeks Tumor volumes, weights, and clinical signs were monitored a minimum of twice per week for each animal in each group throughout the study. In the Round 1 study, it was observed that animal weight in Groups 1 and 2 was essentially unchanged for the duration of the study. […] Because of this, treatment in Groups 3 and 4 was halted after Day 9 while tumor volumes, weights, and clinical signs continued to be monitored a minimum of twice per week for each subject in each group. Subsequently, the animals in Groups 3 and 4 stopped loosing weight and instead started regaining weight. Meanwhile, treatment in Groups 1 and 2 continued as planned. Due to the alterations in the planned study, Round 1 was concluded at Day 20.

Row | Structure (SMILES) | ID1 mRNA levels [1] | E protein binding in cell lysates [2] | pIC50 [3] | pIC50 [4] | water solubility [5] | tumor volume ([6]; AGX-A 10 mg/kg i.p. QD×5 in DMSO, treatment discontinued at 9 days, vs gemcitabine 25 mg/kg QW) | animal weight ([6]; AGX-A in DMSO, Groups 3 and 4)
1 | CCC(=O)N(CCC(c1ccc2c(c1)OCO2)c1ccccc1OC)Cc1ccccc1 (racemic) [AGX51, N-(3-(benzo[d][1,3]dioxol-5-yl)-3-(2-methoxyphenyl)propyl)-N-benzylpropionamide] | increase in ID1 mRNA levels | small increase in E protein binding | 4.44 | 4.96 | water insoluble |  | 
2 | COc1ccccc1C(CCNCc1ccccc1)c1ccc(OC(C)C)cc1 (stereo not shown) [AGX-A, N-benzyl-3-(4-isopropoxyphenyl)-3-(2-methoxyphenyl)propan-1-anine] |  |  |  |  |  | performs better than the SOC drug gemcitabine | weight loss was observed
